Patent US20030050293A1, “Use of dehydroepiandrosterone, its precursors and derivatives, by oral administration, as hydrating agents with direct action” (priority 2000, published 2003)

Key:
[1] = tested on: skin on the ventral side of the forearm of healthy volunteers; assay: Evaluation of the moisturization of the skin by electrical conductance (Dermodiag), randomized double-blind clinical study; assay type: in vivo, human; conditions: for moisturization of the skin vs placebo (Wilcoxon test): 12 months oral 50 mg daily; for Conductance: 50 mg daily oral
Experimental: (§1) The evaluation was carried out using a randomized double-blind clinical study among 280 individuals (140 men and 140 women). The inclusion criteria was as follows: healthy volunteers, of both sexes, free of any severe pathological condition and 60 to 80 years old.
(§2) The treatment consisted, for 12 months, of a daily dose of 50 mg of DHEA, taken in the morning, in the form of a breakable tablet, for half of the individuals, or of a placebo for the other half of the individuals.
The moisturization of the skin on the ventral side of the forearm is measured, blind, at the start of treatment (T0) and at the end of treatment (T12), by the same clinician, using a Dermodiag®, which is a device described in patent U.S. Pat. No. 5,001,436. The characteristics of the device are as follows: outlet impedance: 1.4 kOhms and working frequency 10 MHz. The method used is that described by J. L. Lévêque, Soc. Cosmet. Chem. (1983), 34, 419-428.
This device makes it possible to evaluate the state of moisturization (water content of the superficial layers of the epidermis) by measuring electrical conductance. The conductance is measured using an electrode applied to the skin for 10 seconds. The conductance value is the result of the mean of 6 individual measurements per measurement time.
(§3) The statistical analysis is performed using the Wilcoxon test.

[2] = tested on: sebaceous glands of the skin of healthy volunteers; assay: Evaluation of the production of sebum (Sebutape patches, number of spots by image analysis), randomized double-blind clinical study; assay type: in vivo, human; conditions: for variation in seborrhea vs placebo (Wilcoxon test): 12 months oral 50 mg daily; for Number of spots: 50 mg daily oral
Experimental: as §1, §2
The production of sebum is measured at the start of treatment (T0) and at the end of treatment (T12) according to the techniques described by A. M. Kligman et al., J. Soc. Cosmet. Chem. (1986), 37, 369-373 and by K. M. Nordstrom et al., J. Invest. Dermatol. (1986), 87, 260-264.
White adhesive microporous patches (Sebutape®, Cuderm Corporation, Dallas, Tex., USA) described in U.S. Pat. No. 4,532,937 are used; the patches are applied in a standardized manner to the skin, which has been wiped 10 times, beforehand, with cotton soaked in 70° alcohol in order to remove any fat. The lipids which are passively absorbed onto the patches are visualized by the presence of transparent spots, themselves measured by image analysis.
Each spot represents an active sebaceous gland.
as §3

[3] = men, T0 (start of treatment), DHEA group
[4] = men, T12 (end of 12 months treatment)
[5] = women, T0 (start of treatment), DHEA group
[6] = women, T12 (end of 12 months treatment)

Question: Which “moisturization of the skin vs placebo (Wilcoxon test)” value ([1]; men, p=0.03) does the source give for C[C@]12CC[C@H](O)CC1=CC[C@@H]1[C@@H]2CC[C@]2(C)C(=O)CC[C@@H]12 [DHEA, Dehydroepiandrosterone] here?
Answer: significant improvement

Question: And the Conductance [1, 3]?
Answer: 69

Question: What about the Conductance [1, 4] of the same compound?
Answer: 86

Question: What about the “improvement of the moisturization of the skin, measured by conductance” value ([1]; men, treated group, T12 vs T0, 50 mg daily oral (placebo +21%, p=0.03)) of the same compound?
Answer: 26%

Question: And the “moisturization of the skin vs placebo (Wilcoxon test)” value ([1]; women, p=0.44)?
Answer: without significant variation in the moisturization of the skin

Question: And the Conductance [1, 5]?
Answer: 64

Question: What about the Conductance [1, 6] of the same compound?
Answer: 84

Question: What about the “variation in seborrhea vs placebo (Wilcoxon test)” value ([2]; men, p=0.46) of the same compound?
Answer: no significant variation in seborrhea

Question: And the Number of spots [2, 3]?
Answer: 55

Question: What about the Number of spots [2, 4] of the same compound?
Answer: 140

Question: What about the “variation in seborrhea vs placebo (Wilcoxon test)” value ([2]; women, p=0.0001) of the same compound?
Answer: significant variation in seborrhea

Question: And the Number of spots [2, 5]?
Answer: 2

Question: And the Number of spots [2, 6]?
Answer: 56
